Counter-ions that a name gives are not always drawn.
Assays:
human B1R receptor = target: T1, human B1R receptor (Homo sapiens, UniProt P46663); assay: Functional study on the bradykinin receptor 1 (B1R), FLIPR Ca2+ assay, hB1R cells; format: cell-based; details: agonist Lys-Des-Arg9-bradykinin 0.5 nM, % inhibition compared with the maximum achievable inhibition; for B1R Antagonism, human [10 μM] % Inhibition: test substance 10 μM, hB1R CHO K1 cells; for inhibition at 10 µM: CHO-K1, test substance 10 μM, read-out: B1R Antagonism, human [10 μM] % Inhibition
T1 construct: host or cells: CHO K1 cells (Chinese hamster ovary), stably transfected
T1 sequence (P46663 1-353): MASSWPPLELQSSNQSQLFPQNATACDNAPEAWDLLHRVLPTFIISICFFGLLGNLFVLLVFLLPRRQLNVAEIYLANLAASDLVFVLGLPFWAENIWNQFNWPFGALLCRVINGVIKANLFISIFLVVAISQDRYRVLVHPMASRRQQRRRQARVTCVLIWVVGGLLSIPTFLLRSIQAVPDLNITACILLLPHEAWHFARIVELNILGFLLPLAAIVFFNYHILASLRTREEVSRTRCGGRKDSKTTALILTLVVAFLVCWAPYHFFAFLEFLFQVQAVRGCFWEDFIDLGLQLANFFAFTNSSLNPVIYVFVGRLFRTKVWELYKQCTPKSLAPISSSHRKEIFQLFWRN
Method in brief: (§1)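 FLIPR Ca2+ read-out (Fluo-4, peak fluorescence) in stably transfected CHO K1 cells. Compounds at 10 μM, then 10 min later agonist challenge: human B1R with Lys-Des-Arg9-bradykinin 0.5 nM, rat B1R with Des-Arg9-bradykinin 100 nM; reported as % activation or % of maximal inhibition.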

B1R receptor of the rat = target: T2, B1R receptor of the rat (Rattus norvegicus, UniProt P97583); assay: Functional study on the bradykinin receptor 1 (B1R), FLIPR Ca2+ assay, rB1R cells; format: cell-based; details: agonist Des-Arg9-bradykinin 100 nM, % inhibition compared with the maximum achievable inhibition; for B1R Antagonism, rat [10 μM] % Inhibition: test substance 10 μM, rB1R CHO K1 cells; for inhibition at 10 µM: CHO-K1, test substance 10 μM, read-out: B1R Antagonism, rat [10 μM] % Inhibition
T2 construct: host or cells: CHO K1 cells (Chinese hamster ovary), stably transfected
T2 sequence (P97583 1-337): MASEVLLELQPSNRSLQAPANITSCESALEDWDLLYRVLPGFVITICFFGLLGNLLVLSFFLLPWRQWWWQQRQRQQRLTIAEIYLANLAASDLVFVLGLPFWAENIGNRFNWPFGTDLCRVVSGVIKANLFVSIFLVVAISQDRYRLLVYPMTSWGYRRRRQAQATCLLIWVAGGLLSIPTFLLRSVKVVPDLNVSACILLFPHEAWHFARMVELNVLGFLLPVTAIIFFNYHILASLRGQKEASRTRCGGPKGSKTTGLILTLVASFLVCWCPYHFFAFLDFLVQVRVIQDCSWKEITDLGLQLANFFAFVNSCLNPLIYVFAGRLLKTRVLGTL
Method in brief: as §1

O=C(COCC1CCCN1S(=O)(=O)c1c(Cl)cc(Cl)cc1Cl)N1CCC(N2CCCCC2)CC1 (stereo not drawn) [Example 298, 1-(1,4′-bipiperidin-1-yl)-2-((1-(2,4,6-trichlorophenylsulfonyl)pyrrolidin-2-yl)methoxy)ethanone]
B1R Antagonism, human [10 μM] % Inhibition (human B1R receptor): 105.09% | B1R Antagonism, rat [10 μM] % Inhibition (B1R receptor of the rat): 103.58%

O=C(COCC1CCCCN1S(=O)(=O)c1c(Cl)cccc1Cl)N1CCN(c2ccc(C(F)(F)F)cc2)CC1 (stereo not drawn) [Example 550, 2-((1-(2,6-dichlorophenylsulfonyl)piperidin-2-yl)methoxy)-1-(4-(4-(trifluoromethyl)phenyl)piperazin-1-yl)ethanone]
inhibition at 10 µM (human B1R receptor): 57.8% | inhibition at 10 µM (B1R receptor of the rat): 101%

COc1cc(C)c(S(=O)(=O)N2CCCCC2COCC(=O)NCCCN2CCCCC2)c(C)c1 (stereo not drawn) [Example 413, 2-((1-(4-methoxy-2,6-dimethylphenylsulfonyl)piperidin-2-yl)methoxy)-N-(3-(piperidin-1-yl)propyl)acetamide]
inhibition at 10 µM (human B1R receptor): 99.9% | inhibition at 10 µM (B1R receptor of the rat): 103%

O=C(COCC1CCCN1S(=O)(=O)c1ccc(Cl)c(Cl)c1)N1CCC(CCN2CCCCC2)CC1 (stereo not drawn) [Example 36, 2-((1-(3,4-dichlorophenylsulfonyl)pyrrolidin-2-yl)methoxy)-1-(4-(2-(piperidin-1-yl)-ethyl)piperidin-1-yl)ethanone]
inhibition at 10 µM (human B1R receptor): 79.4% | inhibition at 10 µM (B1R receptor of the rat): 45.7%

COc1cc(C)c(S(=O)(=O)N2CCCC2COCC(=O)N2CCC(CCN3CCCCC3)CC2)c(C)c1 (stereo not drawn) [Example 268, 2-((1-(4-methoxy-2,6-dimethylphenylsulfonyl)pyrrolidin-2-yl)methoxy)-1-(4-(2-(piperidin-1-yl)ethyl)piperidin-1-yl)ethanone]
inhibition at 10 µM (human B1R receptor): 104% | inhibition at 10 µM (B1R receptor of the rat): 102%

CN1CCN(C(=O)COCC2CCCCN2S(=O)(=O)c2c(Cl)cc(Cl)cc2Cl)CC1 (stereo not drawn) [Example 393, 1-(4-methylpiperazin-1-yl)-2-((1-(2,4,6-trichlorophenylsulfonyl)piperidin-2-yl)methoxy)ethanone]
inhibition at 10 µM (human B1R receptor): 104% | inhibition at 10 µM (B1R receptor of the rat): 101%

CN(C)CCCN1CCN(C(=O)COCC2CCCN2S(=O)(=O)c2c(Cl)cc(C(F)(F)F)cc2Cl)CC1 (stereo not drawn) [Example 569, 2-((1-(2,6-dichloro-4-(trifluoromethyl)phenylsulfonyl)pyrrolidin-2-yl)methoxy)-1-(4-(3-(dimethylamino)propyl)piperazin-1-yl)ethanone]
inhibition at 10 µM (human B1R receptor): 90% | inhibition at 10 µM (B1R receptor of the rat): 92.9%

COc1cc(C)c(S(=O)(=O)N2CCCC2COCC(=O)N2CCCC2Cc2ccccn2)c(C)c1 (stereo not drawn) [Example 447, 2-((1-(4-methoxy-2,6-dimethylphenylsulfonyl)pyrrolidin-2-yl)methoxy)-1-(2-(pyridin-2-ylmethyl)pyrrolidin-1-yl)ethanone]
inhibition at 10 µM (human B1R receptor): 66.5% | inhibition at 10 µM (B1R receptor of the rat): 94.2%

CCN(Cc1ccncc1)C(=O)COCC1CCCCN1S(=O)(=O)c1c(Cl)cccc1Cl (stereo not drawn) [Example 482, 2-((1-(2,6-dichlorophenylsulfonyl)piperidin-2-yl)methoxy)-N-ethyl-N-(pyridin-4-ylmethyl)acetamide]
inhibition at 10 µM (human B1R receptor): 97.9% | inhibition at 10 µM (B1R receptor of the rat): 102%

O=C(COCC1CCCCN1S(=O)(=O)c1c(Cl)cccc1Cl)NCC1CCCN(Cc2ccccc2)C1 (stereo not drawn) [Example 314, N-((1-benzylpiperidin-3-yl)methyl)-2-((1-(2,6-dichlorophenylsulfonyl)piperidin-2-yl)methoxy)acetamide]
inhibition at 10 µM (human B1R receptor): 105% | inhibition at 10 µM (B1R receptor of the rat): 104%

COc1cc(C)c(S(=O)(=O)N2CCCC2COCC(=O)N2CCN(Cc3ccc(Cl)cc3)CC2)c(C)c1 (stereo not drawn) [Example 352, 1-(4-(4-chlorobenzyl)piperazin-1-yl)-2-((1-(4-methoxy-2,6-dimethylphenylsulfonyl)pyrrolidin-2-yl)methoxy)ethanone]
inhibition at 10 µM (human B1R receptor): 104% | inhibition at 10 µM (B1R receptor of the rat): 104%

CN1CCC(N2CCN(C(=O)COCC3CCCCN3S(=O)(=O)c3cccc(Cl)c3Cl)CC2)CC1 (stereo not drawn) [Example 173, 2-((1-(2,3-dichlorophenylsulfonyl)piperidin-2-yl)methoxy)-1-(4-(1-methylpiperidin-4-yl)piperazin-1-yl)ethanone dihydrochloride]
inhibition at 10 µM (human B1R receptor): 101% | inhibition at 10 µM (B1R receptor of the rat): 101%

Cc1cccc(Cl)c1S(=O)(=O)N1CCC[C@H]1COCC(=O)N1CCC(CCN2CCCC2)CC1 [Example 161, (S)-2-((1-(2-chloro-6-methylphenylsulfonyl)pyrrolidin-2-yl)methoxy)-1-(4-(2-(pyrrolidin-1-yl)ethyl)piperidin-1-yl)ethanone hydrochloride]
inhibition at 10 µM (human B1R receptor): 98.5% | inhibition at 10 µM (B1R receptor of the rat): 99.2%

CN(C)CCCN1CCN(C(=O)COCC2CCCCN2S(=O)(=O)c2c(Cl)cccc2Cl)CC1 (stereo not drawn) [Example 564, 2-((1-(2,6-dichlorophenylsulfonyl)piperidin-2-yl)methoxy)-1-(4-(3-(dimethylamino)propyl)piperazin-1-yl)ethanone]
inhibition at 10 µM (human B1R receptor): 105% | inhibition at 10 µM (B1R receptor of the rat): 102%

COc1cc(C)c(S(=O)(=O)N2CCCCC2COCC(=O)NCCc2c[nH]c3ccccc23)c(C)c1 (stereo not drawn) [Example 243, N-(2-(1H-indol-3-yl)ethyl)-2-((1-(4-methoxy-2,6-dimethylphenylsulfonyl)piperidin-2-yl)methoxy)acetamide]
inhibition at 10 µM (human B1R receptor): 24.8% | inhibition at 10 µM (B1R receptor of the rat): 80.6%

CN1CCC(N2CCN(C(=O)COCC3CCCCN3S(=O)(=O)c3ccccc3C(F)(F)F)CC2)CC1 (stereo not drawn) [Example 571, 1-(4-(1-methylpiperidin-4-yl)piperazin-1-yl)-2-((1-(2-(trifluoromethyl)phenylsulfonyl)piperidin-2-yl)methoxy)ethanone]
inhibition at 10 µM (human B1R receptor): 104% | inhibition at 10 µM (B1R receptor of the rat): 100%

O=C(COCC1CCCCN1S(=O)(=O)c1cccc2ccccc12)N1CCCN(Cc2ccccc2)CC1 (stereo not drawn) [Example 6, 1-(4-benzyl-[1,4]diazepan-1-yl)-2-[1-(naphthyl-1-sulfonyl)-piperidin-2-ylmethoxy]-ethanone]
B1R Antagonism, human [10 μM] % Inhibition (human B1R receptor): 102.21% | B1R Antagonism, rat [10 μM] % Inhibition (B1R receptor of the rat): 94.88%

Cc1cccc(Cl)c1S(=O)(=O)N1CCCCC1COCC(=O)N1CCN(C2CCN(C)CC2)CC1 (stereo not drawn) [Example 109, 2-((1-(2-chloro-6-methylphenylsulfonyl)piperidin-2-yl)methoxy)-1-(4-(1-methylpiperidin-4-yl)piperazin-1-yl)ethanone]
inhibition at 10 µM (human B1R receptor): 103% | inhibition at 10 µM (B1R receptor of the rat): 102%

COc1cc(C)c(S(=O)(=O)N2CCCC2COCC(=O)Nc2ccc3cnn(C)c3c2)c(C)c1 (stereo not drawn) [Example 501, 2-((1-(4-methoxy-2,6-dimethylphenylsulfonyl)pyrrolidin-2-yl)methoxy)-N-(1-methyl-1H-indazol-6-yl)acetamide]
inhibition at 10 µM (human B1R receptor): 65.1% | inhibition at 10 µM (B1R receptor of the rat): 89.7%

COc1cc(C)c(S(=O)(=O)N2CCCCC2COCC(=O)N2CCN(Cc3cnn(C)c3C)CC2)c(C)c1 (stereo not drawn) [Example 198, 1-(4-((1,5-dimethyl-1H-pyrazol-4-yl)methyl)piperazin-1-yl)-2-((1-(4-methoxy-2,6-dimethylphenylsulfonyl)piperidin-2-yl)methoxy)ethanone]
inhibition at 10 µM (human B1R receptor): 105% | inhibition at 10 µM (B1R receptor of the rat): 99.8%

COc1cc(C)c(S(=O)(=O)N2CCCC2COCC(=O)N2CCC(N3CCN(C)CC3)CC2)c(C)c1 (stereo not drawn) [Example 267, 2-((1-(4-methoxy-2,6-dimethylphenylsulfonyl)pyrrolidin-2-yl)methoxy)-1-(4-(4-methylpiperazin-1-yl)piperidin-1-yl)ethanone]
inhibition at 10 µM (human B1R receptor): 104% | inhibition at 10 µM (B1R receptor of the rat): 95.2%
